{"source": "PubChem BioAssay AID1259407", "about": "(Chemical Carcinogenesis Research Information System (CCRIS), 2018)", "tested_on": "CCRIS mutagenicity, Ames/micronucleus/aberration tests", "assay": "CCRIS mutagenicity studies", "key": {"[1]": {"conditions": "Test System: AMES SALMONELLA TYPHIMURIUM, Strain/Indicator: TA1535, Metabolic Activation: NONE, Method: STANDARD PLATE"}, "[2]": {"conditions": "Test System: AMES SALMONELLA TYPHIMURIUM, Strain/Indicator: TA98, Metabolic Activation: NONE, Method: STANDARD PLATE"}, "[3]": {"conditions": "Test System: AMES SALMONELLA TYPHIMURIUM, Strain/Indicator: TA98, Metabolic Activation: RAT, LIVER, S-9, AROCLOR 1254, Method: STANDARD PLATE"}, "[4]": {"conditions": "Test System: AMES SALMONELLA TYPHIMURIUM, Strain/Indicator: TA100, Metabolic Activation: NONE, Method: STANDARD PLATE"}, "[5]": {"conditions": "Test System: AMES SALMONELLA TYPHIMURIUM, Strain/Indicator: TA100, Metabolic Activation: RAT, LIVER, S-9, AROCLOR 1254, Method: STANDARD PLATE"}, "[6]": {"conditions": "Test System: AMES SALMONELLA TYPHIMURIUM, Strain/Indicator: TA98, Metabolic Activation: NONE, Method: PREINCUBATION"}}, "note": "Calls of active or inactive are those of the source. The rule behind the calls is not given here.", "data": [{"compound": "O=[Se](O)O", "values": [{"measurement": "mutagenic call", "setting": "End Point: IN VIVO CHROMOSOMAL ABERRATIONS, Test System: TESTICULAR CELLS, Species: MOUSE, Strain/Sex: KUNMING/MALE, Route: DIET", "value": "selenite reduced number of chromosomal aberrations induced by mmc"}, {"measurement": "mutagenic call", "setting": "End Point: IN VIVO MICRONUCLEUS, Test System: BONE MARROW CELLS, POLYCHROMATIC ERYTHROCYTES, Species: MOUSE, Strain/Sex: KUNMING/FEMALE, Route: DIET", "value": "selenite reduced micronuclei induced by cyclophosphamide"}, {"measurement": "mutagenic call", "setting": "[1]", "value": "active; positive"}, {"measurement": "mutagenic call", "setting": "Test System: CHINESE HAMSTER OVARY, Strain/Indicator: CHO-K1-BH4 (HGPRT)/6-THIOGUANINE, Metabolic Activation: NONE", "value": "active; positive"}, {"measurement": "mutagenic call", "setting": "Test System: E. COLI, Strain/Indicator: WP2 UVRA, Metabolic Activation: NONE, Method: SPOT TEST", "value": "inactive; negative"}, {"measurement": "mutagenic call", "setting": "Test System: MOUSE LYMPHOMA, Strain/Indicator: L5178Y (TK+/TK-), Metabolic Activation: NONE, Method: SUSPENSION/PLATE", "value": "active; positive. reevaluation of results: positive"}, {"measurement": "mutagenic call", "setting": "Test System: MOUSE LYMPHOMA, Strain/Indicator: L5178Y (TK+/TK-), Metabolic Activation: RAT, LIVER, S-9, AROCLOR 1254, Method: SUSPENSION/PLATE", "value": "active; positive. reevaluation of results: positive"}, {"measurement": "mutagenic call", "setting": "Test System: UDS HUMAN FIBROBLASTS, Strain/Indicator: THY INCORP (NON-S-PHASE), Metabolic Activation: MOUSE, LIVER, S-9, Method: AUTORADIOGRAPHY", "value": "active; positive"}]}, {"compound": "Nc1ncnc2c1ncn2C(c1ccccc1)c1ccccc1", "values": [{"measurement": "mutagenic call", "setting": "Test System: AMES SALMONELLA TYPHIMURIUM, Strain/Indicator: TA97, Metabolic Activation: NONE, Method: STANDARD PLATE", "value": "inactive; negative"}, {"measurement": "mutagenic call", "setting": "Test System: AMES SALMONELLA TYPHIMURIUM, Strain/Indicator: TA97, Metabolic Activation: RAT, LIVER, S-9, AROCLOR 1254, Method: STANDARD PLATE", "value": "inactive; negative"}, {"measurement": "mutagenic call", "setting": "[2]", "value": "inactive; negative"}, {"measurement": "mutagenic call", "setting": "[3]", "value": "active; positive"}, {"measurement": "mutagenic call", "setting": "[4]", "value": "inactive; negative"}, {"measurement": "mutagenic call", "setting": "[5]", "value": "inactive; negative"}]}, {"compound": "Cc1cc(C)cc(OC(=O)N(C)N=O)c1", "values": [{"measurement": "mutagenic call", "setting": "Test System: E. COLI WP2, Strain/Indicator: WP2, Metabolic Activation: NONE, Method: STANDARD PLATE", "value": "active; positive"}]}, {"compound": "O=P(O)(O)OP(=O)(O)OP(=O)(O)O", "values": [{"measurement": "mutagenic call", "setting": "[6]", "value": "inactive; negative"}, {"measurement": "mutagenic call", "setting": "Test System: AMES SALMONELLA TYPHIMURIUM, Strain/Indicator: TA98, Metabolic Activation: RAT, LIVER, S-9, KC 500, Method: PREINCUBATION", "value": "inactive; negative"}, {"measurement": "mutagenic call", "setting": "Test System: AMES SALMONELLA TYPHIMURIUM, Strain/Indicator: TA100, Metabolic Activation: NONE, Method: PREINCUBATION", "value": "inactive; negative"}, {"measurement": "mutagenic call", "setting": "Test System: AMES SALMONELLA TYPHIMURIUM, Strain/Indicator: TA100, Metabolic Activation: RAT, LIVER, S-9, KC 500, Method: PREINCUBATION", "value": "inactive; negative"}, {"measurement": "mutagenic call", "setting": "Test System: AMES SALMONELLA TYPHIMURIUM, Strain/Indicator: TA1535, Metabolic Activation: NONE, Method: PREINCUBATION", "value": "inactive; negative"}, {"measurement": "mutagenic call", "setting": "Test System: AMES SALMONELLA TYPHIMURIUM, Strain/Indicator: TA1535, Metabolic Activation: RAT, LIVER, S-9, KC 500, Method: PREINCUBATION", "value": "inactive; negative"}, {"measurement": "mutagenic call", "setting": "Test System: AMES SALMONELLA TYPHIMURIUM, Strain/Indicator: TA1537, Metabolic Activation: NONE, Method: PREINCUBATION", "value": "inactive; negative"}, {"measurement": "mutagenic call", "setting": "Test System: AMES SALMONELLA TYPHIMURIUM, Strain/Indicator: TA1537, Metabolic Activation: RAT, LIVER, S-9, KC 500, Method: PREINCUBATION", "value": "inactive; negative"}, {"measurement": "mutagenic call", "setting": "Test System: AMES SALMONELLA TYPHIMURIUM, Strain/Indicator: TA1538, Metabolic Activation: NONE, Method: PREINCUBATION", "value": "inactive; negative"}, {"measurement": "mutagenic call", "setting": "Test System: AMES SALMONELLA TYPHIMURIUM, Strain/Indicator: TA1538, Metabolic Activation: RAT, LIVER, S-9, KC 500, Method: PREINCUBATION", "value": "inactive; negative"}, {"measurement": "mutagenic call", "setting": "Test System: E. COLI, Strain/Indicator: WP2 UVRA, Metabolic Activation: NONE, Method: PREINCUBATION", "value": "inactive; negative"}, {"measurement": "mutagenic call", "setting": "Test System: E. COLI, Strain/Indicator: WP2 UVRA, Metabolic Activation: RAT, LIVER, S-9, KC 500, Method: PREINCUBATION", "value": "inactive; negative"}]}, {"compound": "COc1cc(O)c2c(=O)c(-c3ccc(O)cc3)coc2c1", "values": [{"measurement": "mutagenic call", "setting": "Test System: SYRIAN HAMSTER EMBRYO CELLS, Strain/Indicator: HPRT/6-THIOGUANINE, Metabolic Activation: NONE, Method: PLATE", "value": "inactive; negative"}]}, {"compound": "Cc1c(N)cc([N+](=O)[O-])c(N)c1C", "values": [{"measurement": "mutagenic call", "setting": "[2]", "value": "active; positive"}, {"measurement": "mutagenic call", "setting": "[3]", "value": "active; positive"}, {"measurement": "mutagenic call", "setting": "[4]", "value": "inactive; negative"}, {"measurement": "mutagenic call", "setting": "[5]", "value": "inactive; negative"}, {"measurement": "mutagenic call", "setting": "[1]", "value": "inactive; negative"}, {"measurement": "mutagenic call", "setting": "Test System: AMES SALMONELLA TYPHIMURIUM, Strain/Indicator: TA1535, Metabolic Activation: RAT, LIVER, S-9, AROCLOR 1254, Method: STANDARD PLATE", "value": "inactive; negative"}, {"measurement": "mutagenic call", "setting": "Test System: AMES SALMONELLA TYPHIMURIUM, Strain/Indicator: TA1537, Metabolic Activation: NONE, Method: STANDARD PLATE", "value": "inactive; negative"}, {"measurement": "mutagenic call", "setting": "Test System: AMES SALMONELLA TYPHIMURIUM, Strain/Indicator: TA1537, Metabolic Activation: RAT, LIVER, S-9, AROCLOR 1254, Method: STANDARD PLATE", "value": "inactive; negative"}, {"measurement": "mutagenic call", "setting": "Test System: AMES SALMONELLA TYPHIMURIUM, Strain/Indicator: TA1538, Metabolic Activation: NONE, Method: STANDARD PLATE", "value": "active; positive"}, {"measurement": "mutagenic call", "setting": "Test System: AMES SALMONELLA TYPHIMURIUM, Strain/Indicator: TA1538, Metabolic Activation: RAT, LIVER, S-9, AROCLOR 1254, Method: STANDARD PLATE", "value": "active; positive"}]}, {"compound": "OCc1ccc2ccc3cccc4ccc1c2c34", "values": [{"measurement": "mutagenic call", "setting": "Test System: AMES SALMONELLA TYPHIMURIUM, Strain/Indicator: TA98, Metabolic Activation: HUMAN, LIVER, CYTOSOL, PAPS, Method: PREINCUBATION", "value": "active; positive"}, {"measurement": "mutagenic call", "setting": "[6]", "value": "inactive; negative"}, {"measurement": "mutagenic call", "setting": "Test System: AMES SALMONELLA TYPHIMURIUM, Strain/Indicator: TA98, Metabolic Activation: RAT, LIVER, CYTOSOL, KCL, Method: PREINCUBATION", "value": "inactive; negative"}, {"measurement": "mutagenic call", "setting": "Test System: AMES SALMONELLA TYPHIMURIUM, Strain/Indicator: TA98, Metabolic Activation: RAT, LIVER, CYTOSOL, PAPS, KCL, Method: PREINCUBATION", "value": "active; positive"}, {"measurement": "mutagenic call", "setting": "Test System: AMES SALMONELLA TYPHIMURIUM, Strain/Indicator: TA98, Metabolic Activation: RAT, LIVER, CYTOSOL, PAPS, Method: PREINCUBATION", "value": "active; positive"}, {"measurement": "mutagenic call", "setting": "Test System: AMES SALMONELLA TYPHIMURIUM, Strain/Indicator: TA98, Metabolic Activation: RAT, LIVER, PAPS, KCL, Method: PREINCUBATION", "value": "inactive; negative"}, {"measurement": "mutagenic call", "setting": "Test System: AMES SALMONELLA TYPHIMURIUM, Strain/Indicator: TA98, Metabolic Activation: RAT, LIVER, S-9, NADPH, Method: PREINCUBATION", "value": "active; positive"}, {"measurement": "mutagenic call", "setting": "Test System: UDS CHINESE HAMSTER V-79 CELLS, Metabolic Activation: NONE, Method: AUTORADIOGRAPHY", "value": "active; positive"}, {"measurement": "mutagenic call", "setting": "Test System: UDS CHINESE HAMSTER V-79 CELLS, Strain/Indicator: V-79-MZ/CYTIDINE INCORPORATION, Metabolic Activation: NONE, Method: AUTORADIOGRAPHY", "value": "inactive; negative"}, {"measurement": "mutagenic call", "setting": "Test System: UDS CHINESE HAMSTER V-79 CELLS, Strain/Indicator: V-79-RHST20/CYTIDINE INCORPORATION, Metabolic Activation: NONE, Method: AUTORADIOGRAPHY", "value": "active; positive"}, {"measurement": "mutagenic call", "setting": "Test System: UDS CHINESE HAMSTER V-79 CELLS, Strain/Indicator: V-79-RHSTA/CYTIDINE INCORPORATION, Metabolic Activation: NONE, Method: AUTORADIOGRAPHY", "value": "active; positive"}, {"measurement": "mutagenic call", "setting": "Test System: UDS CHINESE HAMSTER V-79 CELLS, Strain/Indicator: V-79-RPST-IV/CYTIDINE INCORPORATION, Metabolic Activation: NONE, Method: AUTORADIOGRAPHY", "value": "active; positive"}]}]}
